Experimental data: US6716813B2, “Use of antimicrobial proteins and peptides for the treatment of otitis media and paranasal sinusitis” (priority 2000, dated 2004)
Read-outs that look alike come from different tables or passages of the source. Positions of bridges follow the written chain, without caps; N, C: chain ends. No end group written: not given here.

Columns and labels:
S. pneumoniae serotype 3 [1] = type: cell-based, Streptococcus pneumoniae; conditions: for effect of salt on the growth inhibitory effect against S. pneumoniae serotype 3: 100 mM NaCl in gel
Description: (§1) The bacteria used in the following examples were cultured as follows: Stocks of NTHi12 and M. catarrhalis […] (generous gift of Dr. Xin-Xing Gu) were maintained at -80° C. For experiments, the bacteria were plated on chocolate agar and incubated overnight at 37° C. in 5% CO2. A single colony was then picked and transferred to 10 ml of brain heart infusion (BHI, Becton Dickinson, Cockeysville, Md.), supplemented with hemin (10 μg/ml, Sigma, St. Louis, Mo.) and NAD (10 μg/ml, Sigma, St. Louis, Mo.), and allowed to grow overnight. In the morning, 1/10 volume of the overnight culture was transferred to fresh medium and incubated for 3-hours. The subculture was then washed twice with 10 mM sodium phosphate and the O.D. at 620 nm was determined. For the S. pneumoniae serotypes 3 and 6B (generous gift of Dr. Xin-Xing Gu), a 50 μl aliquot of the -80° C. stock was thawed on ice, added to 10 ml of Todd-Hewitt broth (THB, Becton Dickinson, Cockeysville, Md.) and cultured overnight. One tenth of the volume of the overnight culture was then transferred to fresh medium and incubated for 3-hours. The subculture was then washed twice with 10 mM sodium phosphate and the O.D. at 620 nm was determined. The radial assay method of […] and coworkers was used, with minor modifications ([…] et al., 1991). The subcultured bacteria (4×10^6 CFU/10 ml underlay gel) were mixed with melted underlay gel at 42° C. (0.1×culture broth-BHI for NTHi and Moraxella and THB for S. pneumoniae-10 mM sodium phosphate, 0.8% low electroendosmosis (EEO)-type agarose) and poured into 8 cm×8 cm square petri plates. The gel was allowed to solidify in the petri plates and wells were punched out with a calibrated 200 μl micropipette tip, cut off at the 50 μl mark (approximately 3 mm). The antimicrobial peptides and proteins were dissolved in 0.01% acetic acid and 4 μl was added to each well. The plates were then incubated for 3 hours at 37° C. in the 5% CO2 incubator. They were next overlaid with the overlay gel (0.5×culture broth, 10 mM sodium phosphate, 0.8% low EEO-type agarose) and covered. The plates were then allowed to incubate overnight at 37° C. in a 5% CO2. The diameter of the zones of inhibition produced by each of the antimicrobial molecules against the OM pathogens (NTHi, M. catarrhalis and S. pneumoniae) was then measured in three separate experiments and the average and standard deviation were calculated. Physiologically, salt concentrations vary depending on the site. However, typically they can be as high as 150 mM. Thus, the salt sensitivity of the antimicrobial molecules was tested. NaCl was added to the gel in Example 2 to obtain a final concentration of 100 mM.

[2] = tested on: S. pneumoniae serotype 6B; type: cell-based, Streptococcus pneumoniae; conditions: for effect of salt on the growth inhibitory effect against S. pneumoniae serotype 6B: 100 mM NaCl in gel
Description: as §1

S. pneumoniae serotype 3 [3] = assay: ultrastructural analysis (electron microscopy); type: cell-based, Streptococcus pneumoniae; conditions: three-hour treatment
Description: (§2) Electron microscopy was performed by treating the bacterial cultures with antimicrobial protein or peptide for 3 hours, mixing with an equal volume of 5% buffered glutaradehyde (pH 7.4) and centrifuging (5000×g, for 20 minutes). The bacterial pellets were left in the fixative at 4° C. for 2 hr, post-fixed in 2% osmium tetroxide, dehydrated in ethanol and embedded in Eponate 12 (Ted Pella, Redding, Calif.). Sections were mounted in coated specimen grids, contrasted with uranyl acetate and lead citrate and examined in a transmission electron microscope (CM120 BioTwin, FEI-Philips, Hillsboro, Oreg.) operating at 80 kV. Images were recorded on photographic film and were subsequently digitized.

NTHi strain12 = type: cell-based, nontypeable Haemophilus influenzae; conditions: for effect of salt on the growth inhibitory effect against NTHi: 100 mM NaCl in gel
Description: as §1

[4] = tested on: M. catarrhalis strain 035E; type: cell-based, Moraxella catarrhalis; conditions: for Diameter of the inhibition zone, M. catarrhalis: no added NaCl, average of 3 experiments ± SD; for effect of salt on the growth inhibitory effect against M. catarrhalis: 100 mM NaCl in gel
Description: as §1

M. catarrhalis = assay: ultrastructural analysis (electron microscopy); type: cell-based, Moraxella catarrhalis
Description: (§3) […] The bacterial pellets were left in the fixative at 4° C. for 2 hr, post-fixed in 2% osmium tetroxide, dehydrated in ethanol and embedded in Eponate 12 (Ted Pella, Redding, Calif.). Sections were mounted in coated specimen grids, contrasted with uranyl acetate and lead citrate and examined in a transmission electron microscope (CM120 BioTwin, FEI-Philips, Hillsboro, Oreg.) operating at 80 kV. Images were recorded on photographic film and were subsequently digitized.

NTHi = assay: ultrastructural analysis (electron microscopy); type: cell-based, nontypeable Haemophilus influenzae
Description: as §3

[5] = tested on: non-typeable Haemophilus influenzae (NTHi); type: cell-based; conditions: 10 μg/ml
Description: The ability of a few of these innate immune mediators: human milk lysozyme (Lz), human β-defensins (HBD) 1 and 2 and human milk lactoferrin (LF) to inhibit the growth of non-typeable Haemophilus influenzae (NTHi) at other concentrations was also investigated using a different type of assay, a colony formation assay. The molecules were tested separately, as well as in combination, and the effect on NTHi growth was determined using a colony formation assay. […] In previous studies, it was shown that the concentration of lysozyme in middle ear effusion can be as high as 3.7 mg/ml and thus the concentrations used in these studies are well within the physiological range. Incubating the bacteria with 10 μg/ml of either human β-defensin 1 or 2 produced an even more pronounced effect, with close to a 95% reduction in the number of colonies. […] For example, the bacteria may be more sensitive to the antimicrobials in a liquid assay, such as the colony forming assay.

[6] = tested on: S. pneumoniae serotype 6B; assay: ultrastructural analysis (electron microscopy); type: cell-based, Streptococcus pneumoniae; conditions: 10 μg/ml, three-hour treatment
Description: as §2

[7] = 40 μg per well, equivalent to 10 mg/ml
[8] = 4 and 10 μg, equivalent to 1 and 2.5 mg/ml

Substance: human lysozyme [hLz]
- effect of salt on the growth inhibitory effect against S. pneumoniae serotype 3 (S. pneumoniae serotype 3 [1]): completely blocked
- effect on growth of S. pneumoniae serotype 3 (S. pneumoniae serotype 3 [1]; dose not given): appeared to enhance the growth
- Diameter of the inhibition zone, S. pneumoniae 6B ([2]; 40 μg in 4 μl per well, no added NaCl, average of 3 experiments ± SD): 5 ± 1.7 mm
- effect on growth of S. pneumoniae serotype 6B [2, 7]: slight but visible inhibition
- effect of salt on the growth inhibitory effect against S. pneumoniae serotype 6B [2]: completely blocked
- ultrastructural changes of S. pneumoniae serotype 3 (S. pneumoniae serotype 3 [3]; 1 mg/ml): many fewer bacteria appear to be lysed
- effect of salt on the growth inhibitory effect against NTHi (NTHi strain12): completely blocked
- effect on growth of NTHi (NTHi strain12; dose not given): no effect
- Diameter of the inhibition zone, M. catarrhalis ([4]; 40 μg in 4 μl per well): 4 ± 1.7 mm
- effect on growth of M. catarrhalis [4, 7]: slight but visible inhibition
- effect of salt on the growth inhibitory effect against M. catarrhalis [4]: completely blocked
- ultrastructural changes of M. catarrhalis (M. catarrhalis; 1-minute treatment): formation of blebs
- ultrastructural changes of NTHi (NTHi; 100 μg/ml, 3 hour): Few completely lysed bacteria were observed
- ultrastructural changes of NTHi (NTHi; 100 μg/ml, 3 hour, listed as human milk lysozyme): extrusion of the outer membrane could clearly be seen
- ultrastructural changes of NTHi (NTHi; 1 mg/ml, 3 hour): blebbing of the membranes with extrusion of the cytoplasmic contents into the blebs
- ultrastructural changes of NTHi, one hour compared with 3 hours (NTHi; one hour treatment): similar

Substance: β-defensin 1 (GNFLTGLGHRSDHYNCVSSGGQCLYSACPIFTKIQGTCYRGKAKCCK; not fully specified; cysteine pairing not given here) [HBD-1, human beta defensin 1, cationic antimicrobial peptide produced by epithelial cells]
- effect of salt on the growth inhibitory effect against S. pneumoniae serotype 3 (S. pneumoniae serotype 3 [1]): completely blocked
- effect of salt on the growth inhibitory effect against S. pneumoniae serotype 6B [2]: completely blocked
- effect of salt on the growth inhibitory effect against NTHi (NTHi strain12): completely blocked
- Diameter of the inhibition zone, M. catarrhalis ([4]; 10 μg in 4 μl per well): 7.7 ± 0.6 mm
- effect of salt on the growth inhibitory effect against M. catarrhalis [4]: completely blocked
- effect on growth of M. catarrhalis ([4]; high dose, 10 μg, equivalent to 2.5 mg/ml): effective
- reduction in the number of colonies [5]: ~95%
- ultrastructural changes of NTHi (NTHi; 10 μg/ml, 3 hours): Morphological changes were also apparent

Substance: GIGDPVTCLKSGAICHPVFCPRRYKQIGTCGLPGTKCCKKP (disulfide 8-37, 15-30, 20-38) [HBD-2, β-defensin 2]
- effect of salt on the growth inhibitory effect against S. pneumoniae serotype 3 (S. pneumoniae serotype 3 [1]): blocked the effect
- effect on growth of S. pneumoniae serotype 3 (S. pneumoniae serotype 3 [1]; [8]): significantly inhibited the growth
- effect of salt on the growth inhibitory effect against S. pneumoniae serotype 6B [2]: blocked the effect
- effect on growth of S. pneumoniae serotype 6B [2, 8]: significantly inhibited the growth
- ultrastructural changes of S. pneumoniae serotype 3 (S. pneumoniae serotype 3 [3]; 10 μg/ml): disappearance of the capsule in certain regions and the lysis of the bacteria
- ultrastructural changes of S. pneumoniae serotype 6B [6]: damage to the capsule and condensation of the cytoplasmic material
- effect of salt on the growth inhibitory effect against NTHi (NTHi strain12): did not inhibit the activity
- effect on growth of NTHi (NTHi strain12; [8]): significantly inhibited the growth
- effect of salt on the growth inhibitory effect against M. catarrhalis [4]: did not inhibit the activity
- effect on growth of M. catarrhalis [4, 8]: significantly inhibited the growth
- ultrastructural changes of M. catarrhalis (M. catarrhalis; 30-minute incubation): substantial damage to the cells
- reduction in the number of colonies [5]: ~95%
- ultrastructural changes of NTHi (NTHi; 10 μg/ml, 3 hours): blebbing of the membranes with extrusion of the cytoplasmic contents into the blebs
- ultrastructural changes of NTHi (NTHi; 10 μg/ml, 3 hours, listed as human β-defensin 2): Morphological changes were also apparent
